Assay results: ChEMBL document CHEMBL1131907, “Novel synthetic oleanane triterpenoids: a series of highly active inhibitors of nitric oxide production in mouse macrophages” (Bioorg Med Chem Lett, 1999); call rule not given here

Legend:
Assay type in all cases: functional, organism-based
Mus musculus [1] = species: Mus musculus; assay: Inhibitory activity against production of nitric oxide induced by interferon-gamma in mouse macrophages
Mus musculus [2] = species: Mus musculus; assay: Inhibitory activity against production of nitric oxide (NO) induced by interferon-gamma (IFN-gamma) in mouse macrophages below 1 uM concentration; Inactive
Mus musculus [3] = species: Mus musculus; assay: Inhibitory activity against production of nitric oxide (NO) induced by interferon-gamma (IFN-gamma) in mouse macrophages above 1 uM concentration; Toxic

Compound	IC50 (Mus musculus [1]) [nM]	IC50 (Mus musculus [2])	IC50 (Mus musculus [3])
COC(=O)C1=C[C@]2(C)C3=CC(=O)C4C5CC(C)(C)CC[C@]5(C(=O)O)CC[C@@]4(C)[C@]3(C)CC[C@H]2C(C)(C)C1=O (some centres undefined)	100	–	–
COC(=O)[C@]12CCC(C)(C)CC1C1=CC(=O)[C@@H]3[C@@]4(C)C=C(C#N)C(=O)C(C)(C)[C@@H]4CC[C@@]3(C)[C@]1(C)CC2 (some centres undefined)	20	–	–
CC1(C)CC[C@]2(C(=O)O)CC[C@]3(C)C(=C2C1)CC(=O)[C@@H]1[C@@]2(C)C=C(C#N)C(=O)C(C)(C)[C@@H]2CC[C@]13C	70	–	–
CC1(C)CC[C@]2(C(=O)O)CC[C@]3(C)[C@H](C(=O)C=C4[C@@]5(C)C=CC(=O)C(C)(C)[C@@H]5CC[C@]43C)[C@@H]2C1	200	–	–
COC(=O)[C@]12CCC(C)(C)CC1C1=CC[C@@H]3[C@@]4(C)C=C(C(N)=O)C(=O)C(C)(C)[C@@H]4CC[C@@]3(C)[C@]1(C)CC2 (some centres undefined)	14000	–	–
CC1(C)CC[C@]2(C(=O)O)CC[C@]3(C)C(=CC[C@@H]4[C@@]5(C)C=C(C=O)C(=O)C(C)(C)[C@@H]5CC[C@]43C)C2C1 (some centres undefined)	–	Not Active	Toxic
COC(=O)[C@]12CCC(C)(C)CC1C1=CC[C@@H]3[C@@]4(C)C=C(C(=O)O)C(=O)C(C)(C)[C@@H]4CC[C@@]3(C)[C@]1(C)CC2 (some centres undefined)	800	–	–
COC(=O)C1=C[C@]2(C)[C@H]3CC=C4C5CC(C)(C)CC[C@]5(C(=O)O)CC[C@@]4(C)[C@]3(C)CC[C@H]2C(C)(C)C1=O (some centres undefined)	2200	–	–
CC1(C)CC[C@]2(C(=O)O)CC[C@]3(C)C(=CC[C@@H]4[C@@]5(C)C=C(Br)C(=O)C(C)(C)[C@@H]5CC[C@]43C)C2C1 (some centres undefined)	7300	–	–
COC(=O)C1=C[C@]2(C)C3=CC(=O)C4C5CC(C)(C)CC[C@]5(C(=O)OC)CC[C@@]4(C)[C@]3(C)CC[C@H]2C(C)(C)C1=O (some centres undefined)	–	Not Active	Toxic
CC1(C)CC[C@]2(C(=O)O)CC[C@]3(C)C(=CC(=O)[C@@H]4[C@@]5(C)C=C(C#N)C(=O)C(C)(C)[C@@H]5CC[C@]43C)C2C1 (some centres undefined)	40	–	–
CC1(C)CC[C@]2(C(=O)O)CC[C@]3(C)C(C(=O)C=C4[C@@]5(C)C=C(C(=O)O)C(=O)C(C)(C)[C@@H]5CC[C@]43C)C2C1 (some centres undefined)	200	–	–
CC1(C)CC[C@]2(C(=O)O)CC[C@]3(C)C(=CC[C@@H]4[C@@]5(C)C=CC(=O)C(C)(C)[C@@H]5CC[C@]43C)C2C1 (some centres undefined)	5600	–	–
COC(=O)[C@]12CCC(C)(C)CC1C1=CC[C@@H]3[C@@]4(C)C=C(Cl)C(=O)C(C)(C)[C@@H]4CC[C@@]3(C)[C@]1(C)CC2 (some centres undefined)	> 40000	–	–
COC(=O)C1=C[C@]2(C)[C@H]3CC=C4C5CC(C)(C)CC[C@]5(C(=O)OC)CC[C@@]4(C)[C@]3(C)CC[C@H]2C(C)(C)C1=O (some centres undefined)	900	–	–
COC(=O)[C@]12CCC(C)(C)CC1C1=CC[C@@H]3[C@@]4(C)C=C(Br)C(=O)C(C)(C)[C@@H]4CC[C@@]3(C)[C@]1(C)CC2 (some centres undefined)	> 40000	–	–
CC1(C)CC[C@]2(C(=O)O)CC[C@]3(C)C(=CC[C@@H]4[C@@]5(C)C=C(Cl)C(=O)C(C)(C)[C@@H]5CC[C@]43C)C2C1 (some centres undefined)	> 40000	–	–
CC1(C)CC[C@]2(C(=O)O)CC[C@]3(C)C(=CC[C@@H]4[C@@]5(C)C=C(C(=O)O)C(=O)C(C)(C)[C@@H]5CC[C@]43C)C2C1 (some centres undefined)	70	–	–
COC(=O)[C@]12CCC(C)(C)CC1C1=CC[C@@H]3[C@@]4(C)C=C(C#N)C(=O)C(C)(C)[C@@H]4CC[C@@]3(C)[C@]1(C)CC2 (some centres undefined)	700	–	–
COC(=O)[C@]12CCC(C)(C)CC1C1=CC[C@@H]3[C@@]4(C)C=C(C=O)C(=O)C(C)(C)[C@@H]4CC[C@@]3(C)[C@]1(C)CC2 (some centres undefined)	–	Not Active	Toxic
COC(=O)[C@]12CCC(C)(C)CC1C1C(=O)C=C3[C@@]4(C)C=C(C(=O)O)C(=O)C(C)(C)[C@@H]4CC[C@@]3(C)[C@]1(C)CC2 (some centres undefined)	0.8	–	–
C[C@]12CCC(=O)C=C1CCC1[C@@H]2[C@@H](O)C[C@@]2(C)[C@H]1CC[C@]2(O)C(=O)CO (single isomer, unassigned) [HYDROCORTISONE]	10	–	–
COC(=O)[C@]12CCC(C)(C)C[C@H]1[C@H]1C(=O)C=C3[C@@]4(C)C=C(C#N)C(=O)C(C)(C)[C@@H]4CC[C@@]3(C)[C@]1(C)CC2 [BARDOXOLONE METHYL]	0.1	–	–
CC1(C)CC[C@]2(C(=O)O)CC[C@]3(C)[C@H](C(=O)C=C4[C@@]5(C)C=C(C#N)C(=O)C(C)(C)[C@@H]5CC[C@]43C)[C@@H]2C1 [BARDOXOLONE]	0.2	–	–
C[C@@H]1C[C@H]2[C@@H]3CCC4=CC(=O)C=C[C@]4(C)[C@@]3(F)[C@@H](O)C[C@]2(C)[C@@]1(O)C(=O)CO [DEXAMETHASONE]	0.1	–	–
CC1(C)CC[C@]2(C(=O)O)CC[C@]3(C)C(=CC[C@@H]4[C@@]5(C)CC[C@H](O)C(C)(C)[C@@H]5CC[C@]43C)[C@@H]2C1 [OLEANOLIC_ACID]	> 40000	–	–
